# Measurements from EP4588995A1, “IMPROVEMENT OF SOLUBILITY OF CHOLINE CARBOXYLATES IN BASE OILS” (OLEON NV, priority 2024, dated 2025).
# Test: Resistivity of blends according to standard ASTM D1169
# Assay type: physicochemical
# Method: The resistivity ability of blends was evaluated according to the standard ASTM […].
smiles,measurement,value
CCCCCCCC/C=C\CCCCCCCC(=O)OCC(COC(=O)CCCCCCC/C=C\CCCCCCCC)(COC(=O)CCCCCCC/C=C\CCCCCCCC)COC(=O)CCCCCCC/C=C\CCCCCCCC [Pentaerythritol tetraoleate],Resistivity,12.00 10^10 Ωcm
